According to ChEMBL document CHEMBL5303711, “ECBD screening data for assay EOS300108” (2023):
Counter-ions that a name gives are not always drawn. Calls of active or inactive are those of the source. No rule for the calls is given here.

Assay: Cytotoxicity activity against human HepG2 cells assessed by CellTiter-Glo luminescent cell viability assay.
Assay type: toxicity, cell-based
Design: assay stage confirmatory assay, source tissue liver
Conditions: HepG2 cells, read-out: IC50 relative

Row | Structure (SMILES) | CC50
1 | CCn1nc(C)cc1C(=O)Nc1nc2cc(C#N)ccc2n1CC | 4 µM (active)
2 | COc1cc(/C=C(\C#N)C(=O)Nc2nnc(C(F)(F)F)s2)ccc1OCc1ccc(C(F)(F)F)cc1C(F)(F)F | 12 µM (active)
3 | Cc1cc(NC(=O)c2cccc(NC(=O)/C=C/CN(C)C)c2)ccc1Nc1nccc(-c2cccnc2)n1 | 3.8 µM (active)
4 | O=C(Nc1ccc(-c2cn3ccsc3n2)cc1)c1cccc(CO)c1 | 6.3 µM (active)
5 | CC(C)C[C@H](NC(=O)[C@H](Cc1ccccc1)NC(=O)c1cnccn1)B(O)O [BORTEZOMIB] | < 0.1 µM (active)
6 | Cn1ncc(N2CCC(C(=O)N3CCN(CCOc4ccc(Cl)cc4)CC3)C2)cc1=O (configuration not stated) | 5 µM (active)
7 | COc1ccc(-c2cc3c4nn(CC(=O)Nc5ccccc5)c(=O)n4ccn3n2)cc1 | 50 µM (inactive)
8 | CN(C)c1nc(Nc2ccc(O)cc2)nc2ccccc12 | 9.7 µM (active)
9 | CC(C)n1ncc2cc(NC(=O)c3cc4ccccc4cc3O)cnc21 | 10 µM (inactive)
10 | CN(C)CC#Cc1ccc(OCCCc2sc(N3CCc4cccc(C(=O)Nc5nc6ccccc6s5)c4C3)nc2C(=O)O)c(F)c1 [A-1155463] | 2.3 µM (active)
11 | CC1CCN(S(=O)(=O)c2ccc(-c3nnc(C(=O)NCCCN4CCCCCC4)o3)cc2)CC1 | 15.6 µM (inactive)
12 | O=C(O)c1ccc2c3c1cccc3c(=O)n1c3ccccc3nc21 | 3.3 µM (active)
13 | C[C@H](Nc1nc(N)nc2ccccc12)c1ccccc1 | 3.9 µM (active)
14 | Oc1ccc2c(c1)CC[C@H](c1ccccc1)[C@@H]2c1ccc(OCCN2CCCC2)cc1 | 2.9 µM (active)
15 | CCc1cc(N2CCC(NC(=O)N3CCN(c4cccnn4)CC3)CC2)ncn1 | 16.3 µM (inactive)
16 | O=C1Nc2ccccc2/C1=C1\Nc2ccccc2\C1=N/O | 14.6 µM (inactive)
17 | O=C(NCc1ccc(S(=O)(=O)c2cc(F)cc(F)c2)cc1)c1ccc2nccn2c1 | < 0.1 µM (active)
18 | CCOc1cc2ncc(C#N)c(Nc3ccc(F)c(Cl)c3)c2cc1NC(=O)/C=C/CN(C)C [PELITINIB] | 1.8 µM (active)
19 | COc1ccc2oc(C(=O)Nc3ncccc3O)c(C)c2c1 | 47.2 µM (inactive)
20 | O=C(NC[C@H](O)CO)c1ccncc1Nc1ccc(I)cc1F [PIMASERTIB] | < 0.1 µM (active)
21 | Cc1ccc(NC(=O)c2cc3ccccc3c(=O)[nH]2)cc1 | 50 µM (inactive)

Row | Structure (SMILES) | CC50
22 | CN[C@@H](C)C(=O)N[C@H](C(=O)N1CCC[C@H]1C(=O)N[C@H]1c2ccccc2C[C@H]1OCC#CC#CCO[C@@H]1Cc2ccccc2[C@@H]1NC(=O)[C@@H]1CCCN1C(=O)[C@@H](NC(=O)[C@H](C)NC)C1CCCCC1)C1CCCCC1 | 3.7 µM (active)
23 | CC(C)CNC(=O)N1CC(Oc2ccc(-c3noc(C4CCOCC4)n3)cc2)C1 | 4.3 µM (active)
24 | Cc1ccc(NC(=O)Cc2ccc(-n3cccc3)cc2)nc1 | 1.6 µM (active)
25 | O=C(Nc1c[nH]nc1-c1nc2cc(CN3CCOCC3)ccc2[nH]1)NC1CC1 [AT-9283] | 1.2 µM (active)
26 | CCc1c2c(nc3ccc(O)cc13)-c1cc3c(c(=O)n1C2)COC(=O)[C@]3(O)CC [7-ETHYL-10-HYDROXYCAMPTOTHECIN] | 0.2 µM (active)
27 | Cc1ccc(Nc2nc(N3CCN(CCO)CC3)nc3c2cnn3C)cc1Cl | 4.8 µM (active)
28 | N#Cc1cc(NC[C@H](O)c2ccco2)nc2ccc(Cl)cc12 | 1.3 µM (active)
29 | CCCNC(=O)N1CC(Oc2ccc(-c3noc(C4CCOCC4)n3)cc2)C1 | 3.7 µM (active)
30 | COc1cccc(NC(=O)CN(C)C(=O)Cn2ncc(Cl)c(Cl)c2=O)c1 | 8.5 µM (active)
31 | CSc1cccc(NC(=O)Nc2ccc3c(c2)N(S(C)(=O)=O)CC3)c1 | 5.4 µM (active)
32 | O=C(NOCC1CC1)c1ccc(F)c(F)c1Nc1ccc(I)cc1Cl [CI-1040] | 0.3 µM (active)
33 | COc1ccc(Nc2ssc(=O)c2Cl)cc1OC | 13.8 µM (active)
34 | Cc1ccc(N2N=C(C(=O)N3CCCC3)S(=O)(=O)c3cccnc32)cc1 | 3.3 µM (active)
36 | OCc1cc(C(O)CNCCCCCCOCCCCc2ccccc2)ccc1O (configuration not stated) [SALMETEROL] | 6.6 µM (active)
37 | Nc1nc(C2CC(N)C2)cc(N2CCC(OCc3ccccc3)CC2)n1 (configuration not stated) | 10.8 µM (active)
38 | CCN(CC)CCCC(C)Nc1c2ccc(Cl)cc2nc2ccc(OC)cc12 (configuration not stated) [QUINACRINE DIHYDROCHLORIDE] | 1.1 µM (active)
39 | CCN1CCN(C(c2ccc(C(F)(F)F)cc2)c2ccc3cccnc3c2O)CC1 (configuration not stated) | 4.1 µM (active)
40 | CCN(CC)CCN(Cc1ccc(-c2ccc(C(F)(F)F)cc2)cc1)C(=O)Cn1c(SCc2ccc(F)cc2)nc(=O)c2c1CCC2 [DARAPLADIB] | 1.5 µM (active)
41 | COc1cccc2c(NCc3ccccc3)nc(-n3c(N)nc4ccccc43)nc12 | 9.6 µM (active)
42 | O=C(c1cc(-c2ccco2)on1)N1CCc2ccccc21 | 8.6 µM (active)

Row | Structure (SMILES) | CC50
43 | Cc1occc1-c1cc(NC(=O)N2CCC[C@H]2c2cccn2C)no1 | 1.1 µM (active)
44 | COC(=O)N[C@@H](C)CNc1nccc(-c2cn(C(C)C)nc2-c2cc(Cl)cc(NS(C)(=O)=O)c2F)n1 [ENCORAFENIB] | 0.9 µM (active)
45 | CC1(C)CC(=O)c2c(C(F)(F)F)nn(-c3ccc(C(N)=O)c(N[C@H]4CC[C@H](O)CC4)c3)c2C1 [SNX-2112] | < 0.1 µM (active)
46 | CC(C)(C)N1C(=O)C(Nc2ccc(N3CCCCC3)cc2)=C(c2ccccc2)S1(=O)=O | 4.9 µM (active)
47 | CCCCOc1c(C(=O)c2c(F)cc(C)cc2F)c[nH]c2nncc1-2 | 50 µM (inactive)
48 | CCN1CCN(c2ccc(C(=O)Nc3nc(-c4cccnc4)cs3)cc2)CC1 | 5.8 µM (active)
49 | Cc1ccc(F)c(C(=O)N2CCC(Oc3ccncc3C)CC2)c1 | 11.2 µM (active)
50 | CN1CCNc2cc(Br)ccc21 | 15.3 µM (inactive)
51 | O=C(Nc1ccc(Cl)cc1)N1CCCN(Cc2ccc(F)cc2)C1 | 6.7 µM (active)
52 | C[C@H]1O[C@@H](O[C@H]2[C@@H](O)C[C@H](O[C@H]3[C@@H](O)C[C@H](O[C@H]4CC[C@@]5(C)[C@H](CC[C@@H]6[C@@H]5CC[C@]5(C)[C@@H](C7=CC(=O)OC7)CC[C@]65O)C4)O[C@@H]3C)O[C@@H]2C)C[C@H](O)[C@@H]1O [DIGITOXIN] | 0.1 µM (active)
53 | COc1cc(OC)cc(C(=O)N2CCN(Cn3ncc(Cl)c(Cl)c3=O)CC2)c1 | 23.4 µM (inactive)
54 | CCNC(=O)c1[nH]nc(-c2cc(Cl)c(O)cc2O)c1-c1ccc(OC)cc1 | 1 µM (active)
55 | CCCn1c(NC(=O)c2cccc(S(=O)(=O)N3CCN(C(C)=O)CC3)c2)nc2ccccc21 | 8.3 µM (active)
56 | CCOc1cccc(N2CCN(c3ncnc4c(F)cccc34)CC2)n1 | 8.3 µM (active)
57 | O=C(NC1(c2ccccc2)CC1)c1c(CN2CCC(N3CCCCC3)CC2)c(-c2cccc(C(F)(F)F)c2)nc2cc(Br)ccc12 | 2.6 µM (active)
58 | CCN(CC)CCCNC(=O)C1CCN(c2nn3cc(-c4ccc(OC)cc4)nc3s2)CC1 | 3 µM (active)
59 | CN(C)S(=O)(=O)c1cccc(NC(=O)CSc2cccc3cccnc23)c1 | 3.5 µM (active)
60 | COc1cc(-c2nn(CCN3CCC(N(C)C)CC3)c3ncnc(N)c23)ccc1NC(=O)OC(C)(C)C | 2.1 µM (active)
61 | COC(=O)C[C@@H]1N=C(c2ccc(Cl)cc2)c2c(sc(C)c2C)-n2c(C)nnc21 | 0.1 µM (active)
62 | c1ccc(-c2cn3c(n2)CCc2ccc4cccnc4c2-3)cc1 | 4 µM (active)
63 | C[C@@H](Oc1ccc2[nH]nc(/C=C/c3cnn(CCO)c3)c2c1)c1c(Cl)cncc1Cl [LY-2874455] | 0.7 µM (active)

Row | Structure (SMILES) | CC50
64 | CN(C)C/C=C/C(=O)Nc1cccc(C(=O)Nc2ccc(Nc3nccc(-c4cccnc4)n3)cc2)c1 | 1 µM (active)
65 | CC[C@@H]1C(=O)N(C)c2cnc(Nc3ccc(C(=O)N[C@H]4CC[C@H](N5CCN(CC6CC6)CC5)CC4)cc3OC)nc2N1C(C)C [VOLASERTIB] | 0.9 µM (active)
66 | O=S(=O)(c1ccccc1)N(CC(F)(F)F)c1ccc(C(O)(C(F)(F)F)C(F)(F)F)cc1 [T091317] | 13.4 µM (inactive)
67 | COc1cc2nc(-c3cc(F)ccc3O)nc(N[C@@H]3CNC[C@H]3C(C)(C)O)c2cc1OC | 1.6 µM (active)
68 | O=c1c2ccccc2sn1-c1nccs1 | 50 µM (inactive)
69 | c1csc(Cn2cccc2CN2CCC[C@H](N3CCCC3)CC2)c1 | 5.2 µM (active)
70 | CN(C)c1ccc(C(=C2C=CC(=[N+](C)C)C=C2)c2ccc(N(C)C)cc2)cc1 [GENTIAN VIOLET] | 14.6 µM (inactive)
71 | Clc1ccc(CSC(Cn2ccnc2)c2ccc(Cl)cc2Cl)cc1 (configuration not stated) [SULCONAZOLE NITRATE] | 14.9 µM (inactive)
72 | COc1ccc(C(=O)N[C@@H]2CN(Cc3ccccc3)C[C@H]2CN(C)C)c(OC)c1 | 11.1 µM (active)
73 | CN(C)S(=O)(=O)c1cccc(-n2sc3ccccc3c2=O)c1 | 9.3 µM (active)
74 | Cn1c(=O)c(F)c(Nc2ccc(I)cc2F)c2c(=O)n(C[C@@H](O)CO)cnc21 [TAK-733] | < 0.1 µM (active)
75 | CNC(=O)c1ccccc1Nc1nc(Nc2ccc3c(c2OC)CCC[C@H](N2CCN(CCO)CC2)C3)ncc1Cl [CEP-37440] | 0.8 µM (active)
76 | CC(C)(O)CNc1ncc(-c2ccnc(Nc3ccnc(Cl)c3)n2)c(CC2CC2)n1 | 4 µM (active)
77 | COc1cc(CN2CCN(c3ccccc3C)CC2)ccc1O | 8 µM (active)
78 | COc1cc2c(Nc3ccc(Br)cc3F)ncnc2cc1OCC1CCN(C)CC1 [VANDETANIB] | 2.6 µM (active)
79 | C[C@@H]1CC[C@@]2(OC1)O[C@H]1C[C@H]3[C@@H]4CC=C5C[C@@H](O[C@@H]6O[C@H](CO)[C@@H](O[C@@H]7O[C@@H](C)[C@H](O)[C@@H](O)[C@H]7O)[C@H](O)[C@H]6O[C@@H]6O[C@@H](C)[C@H](O)[C@@H](O)[C@H]6O)CC[C@]5(C)[C@H]4CC[C@]3(C)[C@H]1[C@@H]2C [DIOSCIN] | 0.7 µM (active)
80 | Cc1nc(NC(=O)N2CCC[C@H]2C(N)=O)sc1-c1ccnc(C(C)(C)C(F)(F)F)c1 [ALPELISIB] | 6.1 µM (active)
81 | O=S(=O)(Nc1cc(Sc2nc[nH]n2)c(O)c2ccccc12)c1ccc(Cl)cc1 | 5.7 µM (active)
82 | CCN(CC)C(=S)SSC(=S)N(CC)CC | 0.3 µM (inactive)
